Our source for the Activity, EC50 and inhibition values is ChEMBL document CHEMBL1156189, “Structure-function relationships of estrogenic triphenylethylenes related to endoxifen and 4-hydroxytamoxifen” (J Med Chem, 2010).

Active and inactive are the calls of the source. The rule behind the calls is not given here.

The EC50 is the concentration at which the effect is half-maximal.

One test concerns MCF7:WS8. The experiment in a line: (§1) Estrogenic activity in human ERalpha expressing MCF7:WS8 cells assessed as stimulation of cell proliferation after 7 days. It is filed as functional.
Test [1] is described as follows: as §1. It is filed as functional.
Test [2] can be described thus: Antiestrogenic activity in human ERalpha expressing MCF7:WS8 cells assessed as inhibition of estradiol-induced proliferation at 1 uM after 7 days. It is filed as functional, cell-based.

With `CC/C(=C(/c1ccc(O)cc1)c1ccc(OCCN(C)C)cc1)c1ccccc1`, the result with MCF7:WS8 was inactive.
Regarding `C[C@]12CC[C@@H]3c4ccc(O)cc4CC[C@H]3[C@@H]1CC[C@@H]2O` [ESTRADIOL], in test [1] (mcf7:ws8), the concentration giving a half-maximal response (EC50) stood at 0.001 nM.
The same measure, in the same setting: with `CC/C(=C(/c1ccccc1)c1ccc(O)cc1)c1ccc(O)cc1` the figure was 1 10^-1nmol.
Take `CCC(=C(c1ccc(O)cc1)c1ccc(OCCN(C)C)cc1)c1ccccc1`: the outcome with MCF7:WS8 was inactive. The inhibition result in test [2] is “Active”.
With `CCC(=C(c1ccc(O)cc1)c1ccc(O)cc1)c1ccccc1`, in test [1] (mcf7:ws8), the concentration giving a half-maximal response (EC50) is on record as 5 10^-2nmol.
Turning to `CCC(=C(c1ccc(O)cc1)c1ccc(O)cc1)c1ccc(O)cc1`, the concentration giving a half-maximal response (EC50) in test [1] (mcf7:ws8) was 1.5 10^-1nmol. Further, the inhibition result in test [2] was “inactive”.
Consider `CC/C(=C(\c1ccc(O)cc1)c1ccc(OCCNC)cc1)c1ccccc1`, for which, in the test on MCF7:WS8, the outcome was inactive. The inhibition result in test [2] is “Active”.
In the case of `CC/C(=C(\c1ccccc1)c1ccc(O)cc1)c1ccc(O)cc1`, the EC50 in test [1] (mcf7:ws8) is recorded as 1 10^-1nmol.
As for `CCOc1ccc(/C(=C(/CC)c2ccc(O)cc2)c2ccc(O)cc2)cc1`, the EC50 in test [1] (Homo sapiens, MCF7:WS8, 168 h, read-out: EC50) is 4 nM. Besides, in test [2], the inhibition entry is “inactive”.
